From US20260308196A1, “HELICASE INHIBITORS” (H. LEE MOFFITT CANCER CENTER AND RESEARCH INSTITUTE, INC., priority 2023, published 2026) come the findings set out here.

In this assay the test system is T1, hCMG helicase.
T1 construct: fork-unwinding strand displacement assay with ATP
The assay is described as follows: helicase assay (fork-unwinding; strand displacement assay). The format is biochemical, human. Particulars: 20 uL reactions: 1 uL DMSO or drugs, 2 uL hCMG (~15 fmol enzyme), 0.5 mM ATP; RF1-134 compared to CA1 (100% inhibition); drug concentration not given. The method, then:
For 20 uL reactions: 1 uL DMSO or drugs, 2 uL hCMG (~15 fmol enzyme), and 0.5 mM ATP were added. The noviose sugar (purple box; called RF1-134) was generated using synthetic chemical approaches. […] CA1 refers to coumermycin-A1.

As to `CO[C@H]1[C@H](OC(=O)c2ccc(C)[nH]2)[C@H](O)[C@@H](Oc2ccc3c(O)c(NC(=O)c4c[nH]c(C(=O)Nc5c(O)c6ccc(O[C@H]7OC(C)(C)[C@@H](OC)[C@H](OC(=O)c8ccc(C)[nH]8)[C@@H]7O)c(C)c6oc5=O)c4C)c(=O)oc3c2C)OC1(C)C` [CA1, coumermycin-A1], the “inhibition of hCMG helicase activity” value is given as 100%.
